Data published in publication PMC4933242, “Low or No Inhibitory Potency of the Canonical Galectin Carbohydrate-binding Site by Pectins and Galactomannans*” (The Journal of Biological Chemistry, 2016).

Columns and labels:
galectin-3 [1] = target: T1, galectin-3 (Homo sapiens, UniProt P17931); assay: Galectin-3-induced hemagglutination of hen erythrocytes in V-shaped microplates; type: cell-based; settings: for Estimated MIC, inhibition of galectin-3-induced hemagglutination, V-plate: MIC given as concentration interval
Protocol: Hemagglutination by galectin-3 was investigated in two assays, hemagglutination in V-shaped microplates (96 wells) and hemagglutination in gel cards described by Nowak et al. ([47]) and Lapierre et al. ([48]), respectively. Briefly, fresh hen blood in Alsever's solution was washed with 0.15 M NaCl, whereupon a 4% erythrocyte solution (by volume in PBS) was prepared and incubated with 1 mg/ml trypsin at 37 °C for 1 h. The cells were then washed with 0.15 M NaCl. The erythrocytes were diluted and preserved as a 10% solution in ID-CellStab solution. For the hemagglutination in V-shaped microplates, 1 volume of erythrocyte suspension in PBS (final concentration 0.6%), 1 volume of galectin solution, 1 volume of 0.15 M NaCl with or without the galectin inhibitor, and 1 volume of 1% bovine serum albumin (BSA) in 0.15 M NaCl were added to each well of the microplate. The plate was then shaken vigorously for 90 min at room temperature and then left standing still for at least 90 min before observing the hemagglutination status in each well. […] Each mixture was then transferred to individual gel card wells, whereupon the cards were centrifuged for 10 min at 85 × g in an ID-Centrifuge (DiaMed GmbH) and thereafter photographed and analyzed for hemagglutination.

galectin-3 [2] = target: T1, galectin-3; assay: Fluorescence anisotropy assay, galectin-3; type: binding; settings: MIC = inhibitor concentration bringing bound probe to 50%; Fig. 4
Protocol: FA was used to analyze interactions of probes and ligands with galectins in solution, as described before ([41][–][44]). A PheraStarFS plate reader, with software PHERAstar Mars version 2.10 R3 (BMG, Offenburg, Germany), was used, and FA of fluorescein-tagged saccharide probes was measured with excitation at 485 nm and emission at 520 nm.
The anisotropy (A) is given in units of mA, where the theoretical maximum is 400, and the value for free fluorescein typically 23. All conditions were measured in at least two duplicate wells.
In this study, the effect of inhibitors of the saccharide probe/galectin interaction was tested in two ways. In the first, a fixed low concentration of fluorescein-tagged probe (0.1 μM) and galectin were mixed with a range of concentrations of inhibitor. An optimal probe was chosen for each galectin to permit use of as low as possible concentration of galectin, while still achieving a sufficient rise in anisotropy for a reliable measuring range ([42][–][44]). […] With structurally defined inhibitors (pure synthetic galacto-oligosaccharides, small galactomannans, and reference ligands) the molecular mass, molar concentrations, and number of binding sites (in this case one binding site per ligand) were known and their dissociation constants (Kd) could therefore be directly calculated, using the data from the FA assay as described in Sörme et al. ([41]). […] Even if the molar concentration of the inhibitor is not known, the anisotropy value at a given condition permits calculation of the molar concentration of free galectin, as described below, and from this what fraction of the galectin is bound by a given mass per volume concentration of inhibitor. From this, the ratio of the molar concentration of the free inhibitor binding sites to their Kd value can be calculated, even if the FA assay cannot distinguish between the case when this is due to a few high affinity binding sites in the polysaccharide fraction or many of low affinity.

[3] = system: galectin-3 accumulation in JIMT-1 cells; assay: Inhibition of GPN-induced galectin-3 accumulation around disrupted lysosomes; type: cell-based, human; settings: 1 or 10 μM for 24 h, then 0.3 mM GPN 12 min, positive control
Protocol: The cells were, after the GPN treatment, quickly washed with PBS and fixed with 3.7% formaldehyde for 15 min before blocking/permeabilization with 1% Tween® 20 and 1–5% BSA in PBS for at least 45 min. […] The cell nuclei were visualized by staining with the DNA-binding fluorescent agent bisbenzimide (Hoechst). The coverslips were finally mounted on glass slides using Mowiol® 4-88 and left at 8 °C overnight to solidify before examination. The samples were imaged with an LSM-510 confocal laser scanning microscope (Carl Zeiss Microscopy GmbH, Oberkochen, Germany) equipped with a Hamamatsu R6357 photomultiplier (Hamamatsu Photonics K.K., Hamamatsu, Japan).

T1 sequence (P17931 whole entry): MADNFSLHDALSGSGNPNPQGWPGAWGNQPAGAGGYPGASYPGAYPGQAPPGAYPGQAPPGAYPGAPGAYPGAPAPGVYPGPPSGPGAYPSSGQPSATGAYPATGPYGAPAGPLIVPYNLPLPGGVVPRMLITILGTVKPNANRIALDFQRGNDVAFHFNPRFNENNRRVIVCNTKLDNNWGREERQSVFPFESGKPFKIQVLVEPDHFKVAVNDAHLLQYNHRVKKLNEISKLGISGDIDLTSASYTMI

Estimated MIC, inhibition of galectin-3-induced hemagglutination, V-plate (galectin-3 [1]; 1 μM galectin-3): 0.25 to 0.74 µM | Estimated MIC, inhibition of galectin-3-induced hemagglutination, V-plate (galectin-3 [1]; 5 μM galectin-3): 2.22 to 6.67 µM | slope of MIC versus galectin-3 concentration, hemagglutination (galectin-3 [1]; V-shaped microtiter plates, Fig. 4): around 1 | slope of MIC versus galectin-3 concentration, FA assay (galectin-3 [2]): around 1
Compound: OC[C@H]1O[C@@H](S[C@@H]2O[C@H](CO)[C@H](O)[C@H](n3cc(-c4cccc(F)c4)nn3)[C@H]2O)[C@H](O)[C@@H](n2cc(-c3cccc(F)c3)nn2)[C@H]1O [33DFTG, 3,3′-Dideoxy-3,3′-bis-[4-(3-fluorophenyl)-1H-1,2,3-triazol-1-yl]-1,1′-sulfanediyl-di-β-D-galactopyranoside]
inhibition of GPN-induced galectin-3 accumulation [3]: inhibit the galectin-3 accumulation
